Experimental data from patent publication US20220098197A1, “SALTS OF HETEROCYCLIC COMPOUND AND USE THEREOF” (priority 2019, published 2022).

How the values were obtained:
Type in all cases: in vivo, Balb/c mice
LPS-induced ALI mice [1] = assay: LPS-induced ALI model: pulmonary vascular permeability by Evans blue dye; conditions: CT-NA 10 mg/kg (P<0.05) or 30 mg/kg (P<0.01), Dex 1 mg/kg (P<0.01)
Method: Evans Blue was a dye that could quickly bind to albumin and was remains restricted within blood vessels because the endothelium was impermeable to albumin under normal physiological conditions. Pulmonary microvascular permeability was assessed by measuring the extravasation of Evans blue dye in the lungs. The method was briefly described as follows. The mice were randomly divided into control group (12 mice) and LPS group (48 mice). The LPS group (48 mice) was further divided into four subgroups (each subgroup contains 12 mice). To measure pulmonary microvascular permeability, the unanaesthetized mice of LPS group received intragastric instillation of NS, CT-NA at 10 mg/kg or 30 mg/kg, or Dex at 1 mg/kg respectively. One hour later, the anaesthetized mice were intratracheally instilled with NS (control group) and LPS (all LPS subgroups) at 10 μl/10 g of body weight. […] And then the absorbance of the Evans blue dye extracted in the supernatant was measured against formamide blank at 620 nm via standard curve method, and expressed as microgram of dye per 100 mg of wet lung weight. In addition, the concentration of albumin in BALF was measured at 628 nm using a spectrophotometer and an albumin measurement kit. The albumin concentration ratio assessed from BALF represented not only the albumin level but also the permeability of the pulmonary microvascular.

CS-induced ALI mice = assay: CS-induced lung injury model: inflammatory cells counting in BALF; conditions: intragastric before CS exposure, 7 days; CT-NA 10 and 30 mg/kg, Dex 1 mg/kg; BALF 24 hrs after last CS; p<0.01
Method: Specific pathogen-free (SPF) female Balb/c mice (22-28 g; aged 8 weeks) were purchased from Shanghai SIPPR-BK Experimental Animal Co., Ltd. […] Model preparation: The mice were randomly divided into 5 groups (12 mice in each group), which were the control group (the mice were exposed to fresh air), the saline group (the mice were exposed to cigarette smoke), dexamethasone (Dex) group (1 mg/kg) (the mice were exposed to cigarette smoke), CT-NA 10 mg/kg group and CT-NA 30 mg/kg group (the mice were exposed to cigarette smoke). According to the grouping, the mice were intragastrically administered saline, Dex and CT-NA, respectively. Thereafter, the mice were exposed to fresh air or cigarette smoke generated from 3R4F research-grade cigarettes (containing about 600 mg TPM/m^3 and 29.9 mg nicotine/m^3) in a cuboid plastic box (65×50x×45 cm). Ten cigarettes were burned every day for seven days. […] 24 hrs after the last exposure to the cigarette smoke, the partial pressure of oxygen (PO2) of all mice was measured by the Moor VMS-OXY™ measuring instrument, which was used to measure the oxygenated/deoxygenated hemoglobin concentration and oxygen saturation (percentage) in the microcirculation at the wavelength range of 500 to 650 nm. […] The supernatant was aliquoted and stored at −80° C. until the cytokine or albumin concentration was measured. […]

LPS-induced ALI mice [2] = assay: LPS-induced ALI model: BALF cell counting
Method: Specific pathogen-free (SPF) Balb/c mice (♂/♀; 20-26 g; 8 weeks old) were purchased from Shanghai SIPPR-BK Experimental Animal Co., Ltd. Mice were kept in an isolated ventilated cage in an environment of 40-60% humidity, 24±2° C., and 12 hrs/12 hrs dark-light cycle, and had free access to food and water. The method for preparing the LPS-induced ALI model was simply described as follows. The mice were randomly divided into a control group (12 mice) and an LPS group (48 mice). The LPS group (48 mice) was further divided into four subgroups (12 mice in each subgroup). […] 24 hrs after LPS challenge, the oxygen saturation (SO2) of all mice was measured by a Moor VMS-OXY™ instrument which measured SO2 (%) in the microcirculation at the wavelength range of 500 to 650 nm. […]
The mice were euthanized to expose the trachea, and then the right lungs were lavaged three times with 0.4 mL/time of sterile normal saline containing bovine serum albumin (BSA) and 5000 IU/L heparin to collect the BALF via tracheal tube. […] The removed lung tissues were weighted after aspirating the surface blood, and the lung weight coefficient was calculated. The lung weight coefficient was an indicator of pulmonary edema, and it was measured by dividing the individual lung weight of each mouse by its total body weight.

CN([C@@H]1CCc2c(CC(=O)[O-])c3cccnc3n2C1)S(=O)(=O)c1ccc(F)cc1.[Na+] [Sodium salt hydrate]
LPS-induced pulmonary vascular leakage and extravasation of Evans Blue dye (LPS-induced ALI mice [1]): significantly reduced
number of total cells, macrophages and neutrophils in BALF (CS-induced ALI mice): significantly reduced
BALF cell infiltration, performance compared with Dex (LPS-induced ALI mice [2]; CT-NA 30 mg/kg versus 1 mg/kg Dex): essentially same performance as that of 1 mg/kg Dex
LPS-induced increase of total cells, neutrophils and macrophages in BALF (LPS-induced ALI mice [2]; CT-NA 10 and 30 mg/kg intragastric 1 h before and 12 hrs after LPS, BALF 24 hrs after LPS, P<0.01): significantly and dose-dependently attenuated
